Test results published in patent US3962249A, “1-(3-Phenylpropyl)-4-furoylpiperazine derivatives” (Kyorin Seiyaku Kabushiki Kaisha, priority 1974, dated 1976).

Assays:
[1] = test system: acetic acid-induced writhing; assay: inhibition of acetic acid-induced writhing counts in mice (analgesic effect); assay type: in vivo; conditions: Mus musculus, read-out: ED50 (50% Effective dose)
[2] = acute toxicity, LD50 in mice by subcutaneous injection (Up and Down method); assay type: in vivo; conditions: mouse, sc, drugs dissolved in physiological saline
Protocol: **) LD50 in mice by subcutaneous injection of the drugs (calculated
by the Up and Down method). Drugs are dissolved in physiological saline

Compound | ED50 [1] [mg/kg] | LD50 [2] [mg/kg]
C[C@@H]1CN(CCCc2ccccc2)[C@@H](C)CN1C(=O)c1ccco1.Cl (relative stereo) [Example 2, trans-1-(3-Phenylpropyl)-2,5-dimethyl-4-(2-furoyl)-piperazine hydrochloride] | 1.52 | > 500
Cc1ccccc1CCCN1C[C@@H](C)N(C(=O)c2ccco2)C[C@@H]1C.Cl (relative stereo) [Example 15, trans-1-[3-(o-Methylphenyl)propyl]-2,5-dimethyl-4-(2-furoyl)piperazine hydrochloride] | 1 | > 750
Cc1cccc(CCCN2C[C@@H](C)N(C(=O)c3ccco3)C[C@@H]2C)c1.Cl (relative stereo) [Example 16, trans-1-[3-(m-Methylphenyl)propyl]-2,5-dimethyl-4-(2-furoyl)piperazine hydrochloride] | 1.05 | > 500
Cl.O=C(c1ccco1)N1CCN(CCCc2ccccc2)CC1 [Example 1, 1-(3-Phenylpropyl)-4-(2-furoyl)piperazine hydrochloride] | 7.8 | 400
CC1CN(C(=O)c2ccco2)CCN1CCCc1ccccc1 (stereo not drawn) [Example 3, 1-(3-Phenylpropyl)-2-methyl-4-(2-furoyl)piperazine] | 5.17 | 300
CC1CN(CCCc2ccccc2)CCN1C(=O)c1ccco1.Cl (stereo not drawn) [Example 4, 1-(3-Phenylpropyl)-3-methyl-4-(2-furoyl)piperazine hydrochloride] | 3.42 | > 750
CC1(C)CN(CCCc2ccccc2)CCN1C(=O)c1ccco1.Cl [Example 5, 1-(3-Phenylpropyl)-3,3-dimethyl-4-(2-furoyl)piperazine hydrochloride] | 2.2 | > 500
Cc1ccccc1CCCN1CCN(C(=O)c2ccco2)CC1.Cl [Example 7, 1-[3-(o-Methylphenyl)propyl]-4-(2-furoyl)piperazine hydrochloride] | 3 | 400
Cc1cccc(CCCN2CCN(C(=O)c3ccco3)CC2)c1.Cl [Example 8, 1-[3-(m-Methylphenyl)propyl]-4-(2-furoyl)piperazine hydrochloride] | 3.35 | 350
CCOc1ccc(CCCN2CCN(C(=O)c3ccco3)CC2)cc1.Cl [Example 9, 1-[3-(p-Ethoxyphenyl)propyl]-4-(2-furoyl)piperazine hydrochloride] | 8.85 | 400
Cc1occc1C(=O)N1CCN(CCCc2ccccc2)CC1.Cl [Example 11, 1-(3-Phenylpropyl)-4-(2-methyl-3-furoyl)piperazine hydrochloride] | 1.81 | 170
Cc1cc(C(=O)N2CCN(CCCc3ccccc3)CC2)co1.Cl [Example 12, 1-(3-Phenylpropyl)-4-(5-methyl-3-furoyl)piperazine hydrochloride] | 3.93 | 200
